US8575376B2, “Steroide anionic compounds, method of their production, usage and pharmaceutical preparation involving them” (Ustav Organicke Chemie A Biochemie Akademie Ved Ceske …, priority 2009, dated 2013)
Read-outs that look alike come from different tables or passages of the source.

Legend:
Type in all cases: in vivo, rat
[1] = Pharmacokinetics in plasma and brain after i.p. injection
Method: In the experiment 40 adult Long-Evans male rats from breeding colony of Institute of Physiology AS CR v.v.i., Prague were used. Rats were treated i.p. with a dose 1 mg/kg of compound from example 9 dissolved in 72 mM of hydroxypropyl-β-cyclodextrine saline solution. Brain and plasma was taken 5 min, 15 min, 30 min, 45 min, 60 min, 90 min, 120 min, 180 min, 24 hours and 48 hours after drug administration. Each brain and blood samples were taken from separate rat. Samples were collected in 4 rats for each time interval. Samples were immediately stored in a −80° C. freezer.
The concentrations of compound from example 9 in rat brain and plasma samples were measured by high performance liquid chromatography (HPLC) coupled with mass spectrometry (Agilent 6320 Ion Trap). Deuteried internal standard (3-d labeled compound from example 9) has been used for ensuring high accuracy of measurement.

Wistar rats = assay: Spontaneous EEG and epileptic afterdischarges in awake rats
Source text: To assess the influence of the compound from example 9 on spontaneous EEG, evoked potentials and epileptic afterdischarges, recording electrodes were implanted into the epidural spaces of the adult Wistar rats. Rats were anaesthetized with isoflurane (1.5-2%) and 4 silver wire bare electrodes were inserted epidurally over sensorimotor cortex. Reference and ground electrodes were placed above cerebellum. The whole montage was fixed to the skull with dental acrylic.
After recovery period (1 week), animals were placed into the plastic boxes and connected to the Video EEG monitoring (VisionBrain/). After 1 hour of background recording the compound from example 9 was administered at the dose of 0.01 mg/kg and EEG was recorded for next 24 hours. Analysis of EEG was performed in a custom-based MATLAB script. Power of the EEG signal was calculated from FFT in frequency band 1.5-45 Hz. Length and duration of spike and wave afterdischarges (SPW) was measured from EEG to assess effect of compound from example 9 (0.01 mg/kg and 10 mg/kg) on epileptiform activity.

rats [2] = assay: Prepulse inhibition of the acoustic startle response (sensorimotor gating); conditions: 1 and 10 mg/kg s.c., compound alone
rats [3] = assay: Open-field locomotion in MK-801 animal model of schizophrenia
Method: The effect of the compound from example 9 in doses of 0.1 mg/kg and 1 mg/kg on locomotor activity in open field test was evaluated. Locomotor activity expressed as a total distance travelled during 30 min exploration of a box (68×68×30 cm) located in a sound proof room was measured using a video tracking system for automation of the behavioural experiments (Noldus, EthoVision, Version 2.1.).

rats [4] = assay: Histochemical analysis (FluoroJadeB) after bilateral NMDA-induced hippocampal lesion; conditions: 1 mg/kg i.p.
Method: Animals were divided into four groups consisting of two series. First group of animals received an application of NMDA (intrahipocampally, i.h.) and compound from Example 9 (1 mg/kg, i.p.). Second group received NMDA i.h. and cyclodextrine i.p., third group obtained saline i.h. and cyclodextrin i.p. Forth group was applied with sterile saline i.h. and compound from Example 9 at a dose 1 mg/kg, i.p. Six animals from each group was sacrificed and perfused at intervals of 1-4 days after experimental manipulation.
Animals were deeply anesthetized by isoflurane (3.5%, driven by air) and fixed in the stereotaxic apparatus. Small drills were made in the skull and subsequently microinjection of NMDA (1 μl, […] NMDA in saline; pH adjusted to 7.2 by calcium dihydrogenphosphate) into both hippocampi was pursued. Coordinates of application (AP=4, L=2.5, DV=4) were localized with stereotaxic atlas (Paxinos and Watson, 2005) and verified in histological controls. Rats were again placed in soft recovery boxes after surgery and carefully monitored after surgery.
Application of compound from Example 9 was done according to experimental scheme either 30 min prior to and after NMDA application (in first series of experiments) or 30 min after lesion in the second series. Animals were perfused on days 1-4 after lesion, their brains were fixed with paraformaldehyde and sacharose solution. The brains were subsequently frozen to −70° C., and thin brain slices were prepared on cryomicrotome, stained and analyzed under light microscope.

Long-Evans rats = assay: Learned helplessness model of affective disorders; conditions: 1 mg/kg i.p. after inescapable shocks, tested 24 h later, p<0.01 vs LH group
Method: Male Long-Evans rats weighing 350-450 g were used. Animals were housed in groups in an air-conditioned room with 12 h/12 h light/dark cycle with the lights on at 7 a.m. Water and food were available ad libitum. Animals were randomly assigned to 3 groups—control group (received no shocks), learned helplessness group (received shocks) and experimental group (received shocks and injection of compound from example 9). An experimental set-up was composed of two chambers separated by a sliding door. The transparent shock chamber (48×20×20 cm) with one entrance led to the dark chamber (25×15×15 cm) made of black plexiglass. The floor of the shock chamber consisted of metal rods. Shocks were delivered through the grid floor. A shock generator (Data acquisition MF624 multifunction I/O board for PCI, Humusoft Ltd., Czech Republic) was connected to and controlled by a computer. On the pre-treatment day rats were individually placed into the apparatus for 10-minute habituation period. The sliding door separating two chambers was removed allowing free movements between the compartments. Immediately after the habituation rats were confined to the shock chamber for 1 hour. Inescapable shocks (72 V) of 10 s duration were delivered at 50 s intervals. Afterwards animals were injected i.p. with compound from example 9 in dose of 1 mg/kg. […] The number of escapes was recorded. […]

[5] = rat, 1 mg/kg i.p., mean of 4 rats

Q: Which Tmax ([1]; male, Long-Evans, brain, ip, rat, 1 mg/kg i.p., read-out: Tmax in brain (converted)) does the source give for `CC(=O)[C@H]1CC[C@H]2[C@@H]3CC[C@@H]4C[C@H](OC(=O)[C@@H](N)CCC(=O)O)CC[C@]4(C)[C@H]3CC[C@]12C` [Example 9, 20-Oxo-5β-pregnan-3α-yl L-glutamyl 1-ester] here?
A: 1 h

Q: And the Cmax ([1]; male, Long-Evans, plasma, ip, rat, 1 mg/kg i.p.)?
A: 675 ng/mL

Q: What about the Tmax ([1]; male, Long-Evans, plasma, ip, rat, 1 mg/kg i.p., read-out: Tmax in plasma (converted)) of the same compound?
A: 0.25 h

Q: And the half-life ([1]; male, Long-Evans, rat, intraperitoneal, 1 mg/kg, plasma, estimated)?
A: 4.45 h

Q: What about the AUC ([1]; male, Long-Evans, rat, ip, 1 mg/kg, plasma, estimated, read-out: AUC0_inf i.p. (converted)) of the same compound?
A: 1260 ng·h/mL

Q: And the Ke ([1]; plasma, estimated)?
A: 0.002593

Q: What about the “accumulation in brain tissue” value ([1]; rat, 1 mg/kg i.p.) of the same compound?
A: not cumulated in brain tissue

Q: What about the “blood brain barrier penetration” value ([1]; rat, 1 mg/kg i.p.) of the same compound?
A: penetrates blood brain barrier

Q: What about the cmax in brain ([1]; rat, 1 mg/kg i.p.) of the same compound?
A: 508 ng/whole brain

Q: What about the “brain level after 2 hours” value [1, 5] of the same compound?
A: 222 ng/whole brain

Q: What about the “brain level after 3 hours” value [1, 5] of the same compound?
A: 128 ng/whole brain

Q: And the “brain level after 24 hours” value [1, 5]?
A: 14 ng/whole brain

Q: And the “brain level after 48 hours” value [1, 5]?
A: 0.6 ng/whole brain

Q: And the “spontaneous EEG power” value (Wistar rats; 60 min and 180 min after application)?
A: changes the EEG power at the shorter interval

Q: And the “duration and number of spike-wave afterdischarges” value (Wistar rats; higher dose (10 mg/kg))?
A: tended to increase these parameter

Q: And the “duration and number of spike-wave afterdischarges” value (Wistar rats; low dose (0.01 mg/kg))?
A: tended to slightly decrease both duration and number of spike-wave episodes

Q: And the “prepulse inhibition of the startle response” value (rats [2])?
A: none of the doses of the compound from Example 9 significantly altered this parameter

Q: And the “hyperlocomotion induced by MK-801 in open field” value (rats [3]; Example 9 0.1 or 1 mg/kg + MK-801 0.1 mg/kg)?
A: has not effect on hyperlocomotion state induced by MK-801

Q: And the “locomotion in open field (total distance, 30 min)” value (rats [3]; substance alone, Example 9 0.1 and 1 mg/kg, MK-801 0.1 mg/kg)?
A: did not produce locomotor alterations in the open-field test

Q: What about the “NMDA-induced damage in caudatoputamen and thalamic nuclei (histology)” value (rats [4]) of the same compound?
A: Alleviation, but not elimination of damage

Q: What about the “NMDA-induced damage in neocortex (histology)” value (rats [4]) of the same compound?
A: pronounced cessation of damage in the whole neocortex

Q: And the “NMDA-induced damage to the hippocampus (histology)” value (rats [4]; dentate gyrus, Cornu ammonis fields, subiculum)?
A: significant decrease of NMDA-induced damage to the hippocampus

Q: What about the “number of escapes (learned helplessness)” value (Long-Evans rats) of the same compound?
A: significantly increased number of escapes
